Results on seven molecules are retold here after US4204990A, “Somatostatin analogues” (American Home Products Corporation, priority 1978, dated 1980).

Common to all, as to type: in vivo, rat
The test system of assay [1] is growth hormone. The experiment in a line: Arginine-stimulated growth hormone level in Nembutal-anaesthetised rats after subcutaneous test compound. The settings on record: for GH: p<0.01. On the procedure:
(§1) Albino male rats were administered Nembutal intraperitoneally at a dose of 50 milligrams per kilogram. Fifteen minutes later a subcutaneous injection of the test compound or physiological saline was administered. Ten minutes later 0.5 milliliters of arginine (300 milligrams per milliliter, pH 7.2) is injected into the heart. Five minutes after receipt of the arginine the rats are decapitated and blood is collected into trasylol-EDTA. An appropriate aliquot was assayed for growth hormone, insulin and glucagon.

The test system of another assay is insulin. The experiment in a line: Arginine-stimulated insulin level in Nembutal-anaesthetised rats after subcutaneous test compound. The settings on record: p<0.01. On the procedure:
as §1

Another assay relates to glucagon. The experiment in a line: Arginine-stimulated glucagon level in Nembutal-anaesthetised rats after subcutaneous test compound. On the procedure:
as §1

Assay [2] deals with growth hormone. In words: Duration of activity: plasma growth hormone by radioimmunoassay at hours after SC injection. The settings on record: for GH (duration of activity) / GH (duration of growth hormone suppression): 1,000 μg/kg. On the procedure: The animals were kept in separate cages. Twenty minutes before the end of the test, 50 mg/kg Nembutal® was administered to all the rats (i.p.). […] Plasma was separated and growth hormone concentration was determined by radio immunoassay. Comparisons between the control and experimental growth hormone values were evaluated by the Student "t" test and statistical significance at the 0.05 level or lower was used as the index of activity. Based upon that test [Brazeau et al., Science, 170, 77 (1973)], the prolonged growth hormone suppression by the compounds of this invention was established. The data obtained for the product of Example 1, illustrative of the duration of activity of the other compounds of this invention, is as follows: […]

The mark [3] stands for this setting: dose 2,000 μg/kg, control 220 ± 17.
The mark [4] stands for this setting: dose 2,000 μg/kg, control 34 ± 4.
The mark [5] stands for this setting: dose 2,000 μg/kg, control 38 ± 6.

Where a name gives a salt, the structure may show the parent alone. Positions of bridges follow the written chain, without caps; N, C: chain ends. Non-standard residues stand in square brackets, D forms with d. Residues, ends and D or L forms follow the SMILES beside them.

In the case of `C[C@@H](O)[C@@H]1NC(=O)[C@H](CCCCN)NC(=O)[C@@H](Cc2c[nH]c3ccccc23)NC(=O)[C@H](Cc2ccccc2)NC(=O)[C@H](Cc2ccccc2)NC(=O)[C@@H](Cc2ccc(O)cc2)NC(=O)[C@H](CCCNC(=N)N)NC(=O)[C@@H](N)CSSC[C@H](C(=O)O)NC(=O)[C@H](CO)NC(=O)[C@H]([C@@H](C)O)NC(=O)[C@H](Cc2ccccc2)NC1=O` [L-Cysteinyl-L-arginyl-D-tyrosyl-L-phenylalanyl-L-phenylalanyl-D-tryptophyl- L-lysyl-L-threonyl-L-phenylalanyl-L-threonyl-L-seryl-D-cysteine cyclic (1→12) disuflide] (H-CR[dY]FF[dW]KTFTS[dC]-OH; disulfide 1-12), the GH with growth hormone [1] (dose 3,000 μg/kg sc, control 176 ± 33) came out at 17 ± 3 ng/mL. The “reduction of secretion of growth hormone, insulin and glucagon (in words)” value in the assay with growth hormone [1] (summary of rat data) is “effective agent for reducing secretion of growth hormone, insulin, and glucagon”. For the same molecule, the INS was 7 ± 2 µU/mL in the assay with insulin (dose 100 μg/kg sc, control 43 ± 3) and 48 ± 9 µU/mL in the assay on insulin (dose 3,000 μg/kg sc, control 340 ± 17). Also, the GLUN in the assay with glucagon (dose 100 μg/kg sc, control 46 ± 6, p>0.05) came to 31 ± 4 pg/mL; in the assay with glucagon (dose 3,000 μg/kg sc, control 48 ± 5, p<0.01) it was 23 ± 4 pg/mL. The “Plasma GH” value was found to be 152 ± 27 ng/mL in the assay with growth hormone [2] (500 μg/kg SC, 6 hours after injection, control 103 ± 17); 30 ± 5 ng/mL with growth hormone [2] (1,000 μg/kg SC, 2 hours after injection, control 542 ± 145, p<0.01); 37 ± 6 ng/mL in the assay on growth hormone [2] (1,000 μg/kg SC, 4 hours after injection, control 107 ± 25, p<0.01); 114 ± 22 ng/mL in the assay on growth hormone [2] (1,000 μg/kg SC, 6 hours after injection, control 103 ± 17). In addition, the “duration of growth hormone suppression (in words)” value in the assay on growth hormone [2] (summary of rat data) was “very prolonged activity in suppressing growth hormone blood levels”.
In the case of `C[C@H](N)C(=O)NCC(=O)N[C@H]1CSSC[C@@H](C(=O)O)NC(=O)[C@H](CO)NC(=O)[C@H]([C@@H](C)O)NC(=O)[C@H](Cc2ccccc2)NC(=O)[C@H]([C@@H](C)O)NC(=O)[C@H](CCCCN)NC(=O)[C@H](Cc2c[nH]c3ccccc23)NC(=O)[C@H](Cc2ccccc2)NC(=O)[C@H](Cc2ccccc2)NC(=O)[C@H](CC(N)=O)NC(=O)[C@H](CCCCN)NC1=O` [SRIF, reference compound], the INS in the assay on insulin (dose 200 μg/kg sc, control 43 ± 3) came out at 31 ± 2 µU/mL. The GLUN in the assay on glucagon (dose 200 μg/kg sc, control 46 ± 6, p<0.01) is 21 ± 4 pg/mL.
Consider `C[C@@H](O)[C@@H]1NC(=O)[C@H](Cc2ccccc2)NC(=O)[C@H]([C@@H](C)O)NC(=O)[C@H](CCCCN)NC(=O)[C@@H](Cc2c[nH]c3ccccc23)NC(=O)[C@H](Cc2ccccc2)NC(=O)[C@H](Cc2ccccc2)NC(=O)[C@@H](Cc2c[nH]cn2)NC(=O)[C@H](CCCNC(=N)N)NC(=O)[C@@H](N)CSSC[C@@H](C(=O)O)NC(=O)[C@H](CO)NC1=O` [Ex. 4, L-Cysteinyl-L-arginyl-D-histidyl-L-phenylalanyl-L-phenylalanyl-D-tryptophyl-L-lysyl-L-threonyl-L-phenylalanyl-L-threonyl-L-seryl-L-cysteine cyclic (1→12) disulfide tetra-acetate (salt)] (H-CR[dH]FF[dW]KTFTSC-OH; disulfide 1-12), for which the GH with growth hormone [1] (dose 500 μg/kg, control 119 ± 29) is 6 ± 1 ng/mL. This molecule also displayed an INS in the assay on insulin (dose 500 μg/kg, control 280 ± 15) of 127 ± 22 μU/ml. In addition, the GLUN in the assay on glucagon (dose 500 μg/kg, control 44 ± 6) is 29 ± 5 pg/mL. In addition, the “GH (duration of activity)” value in the assay with growth hormone [2] (2 hours, control 82 ± 25, p<0.05) was 24 ± 5 ng/mL; in the assay on growth hormone [2] (4 hours, control 76 ± 28, p<0.1 (not significant)), 20 ± 7 ng/mL; in the assay on growth hormone [2] (5 hours, control 171 ± 38, p<0.02) it was 54 ± 11 ng/mL; in the assay with growth hormone [2] (6 hours, control 73 ± 10) it was 54 ± 13 ng/mL.
As to `C[C@@H](O)[C@@H]1NC(=O)[C@H](Cc2ccccc2)NC(=O)[C@H]([C@@H](C)O)NC(=O)[C@H](CCCCN)NC(=O)[C@@H](Cc2c[nH]c3ccccc23)NC(=O)[C@H](Cc2ccccc2)NC(=O)[C@H](Cc2ccccc2)NC(=O)[C@@H](CCCNC(=N)N)NC(=O)[C@H](CCCCN)NC(=O)[C@@H](N)CSSC[C@@H](C(=O)O)NC(=O)[C@H](CO)NC1=O` [Ex. 6] (H-CK[dR]FF[dW]KTFTSC-OH; disulfide 1-12), the GH with growth hormone [1] (setting [3]) is 34 ± 8 ng/mL. The INS in the assay with insulin (setting [4]) worked out at 5 ± 1 µU/mL. The molecule further came in with a GLUN in the assay on glucagon (setting [5]) of 32 ± 5 pg/mL. The “GH (duration of activity)” value is 53 ± 8 ng/mL with growth hormone [2] (2 hours, control 148 ± 25, p<0.01) and 21 ± 4 ng/mL in the assay with growth hormone [2] (4 hours, control 73 ± 24, p<0.1).
On to `C[C@@H](O)[C@@H]1NC(=O)[C@H](Cc2ccccc2)NC(=O)[C@H]([C@@H](C)O)NC(=O)[C@H](CCCCN)NC(=O)[C@@H](Cc2c[nH]c3ccccc23)NC(=O)[C@H](Cc2ccccc2)NC(=O)[C@H](Cc2ccccc2)NC(=O)[C@@H](Cc2ccc(O)cc2)NC(=O)[C@H](CCCCN)NC(=O)[C@@H](N)CSSC[C@@H](C(=O)O)NC(=O)[C@H](CO)NC1=O` [Ex. 5, L-Cysteinyl-L-lysyl-D-tyrosyl-L-phenylalanyl-L-phenylalanyl-D-tryptophyl-L- lysyl-L-threonyl-L-phenylalanyl-L-threonyl-L-seryl-L-cysteine cyclic (1→12) disulfide] (H-CK[dY]FF[dW]KTFTSC-OH; disulfide 1-12), for which the “GH (duration of growth hormone suppression)” value in the assay with growth hormone [2] (2 hours, control 84 ± 17, p<0.01) stood at 27 ± 5 ng/mL; with growth hormone [2] (2 hours, second experiment, control 80 ± 12), 72 ± 21 ng/mL; with growth hormone [2] (4 hours, control 84 ± 22, p<0.05), 33 ± 4 ng/mL; in the assay with growth hormone [2] (5 hours, control (printed 2 hours) 141 ± 51) it was 113 ± 27 ng/mL.
On to `C[C@@H](O)[C@@H]1NC(=O)[C@H](Cc2ccccc2)NC(=O)[C@H]([C@@H](C)O)NC(=O)[C@H](CCCCN)NC(=O)[C@@H](Cc2c[nH]c3ccccc23)NC(=O)[C@H](Cc2ccccc2)NC(=O)[C@H](Cc2ccccc2)NC(=O)[C@@H](CCCNC(=N)N)NC(=O)[C@H](CCCNC(=N)N)NC(=O)[C@@H](N)CSSC[C@@H](C(=O)O)NC(=O)[C@H](CO)NC1=O` [Ex. 2, L-Cysteinyl-L-arginyl-D-arginyl-L-phenylalanyl-L-phenylalanyl-D-tryptophyl- L-lysyl-L-threonyl-L-phenylalanyl-L-threonyl-L-seryl-L-cysteine cyclic (1→12)-disulfide tetraacetate (salt)] (H-CR[dR]FF[dW]KTFTSC-OH; disulfide 1-12), for which the GH with growth hormone [1] (dose 1,000 μg/kg, control 141 ± 14) turned out to be 4 ± 3 ng/mL. Besides, in the assay with insulin (dose 1,000 μg/kg, control 227 ± 19), the INS was determined as 89 ± 8 µU/mL. This molecule also returned a GLUN in the assay with glucagon (dose 1,000 μg/kg, control 61 ± 7) of 44 ± 8 pg/mL. Also, the “GH (duration of activity)” value was 54 ± 11 ng/mL in the assay on growth hormone [2] (2 hours, control 303 ± 53, p<0.001) and 83 ± 9 ng/mL in the assay with growth hormone [2] (4 hours, control 73 ± 7).
In turn, `C[C@@H](O)[C@@H]1NC(=O)[C@H](Cc2ccccc2)NC(=O)[C@H]([C@@H](C)O)NC(=O)[C@H](CCCCN)NC(=O)[C@@H](Cc2c[nH]c3ccccc23)NC(=O)[C@H](Cc2ccccc2)NC(=O)[C@H](Cc2ccccc2)NC(=O)[C@@H](CO)NC(=O)[C@H](CCCNC(=N)N)NC(=O)[C@@H](N)CSSC[C@@H](C(=O)O)NC(=O)[C@H](CO)NC1=O` [Ex. 3, L-Cysteinyl-L-arginyl-D-seryl-L-phenylalanyl-L-phenylalanyl-D-tryptophyl-L- lysyl-L-threonyl-L-phenylalanyl-L-threonyl-L-seryl-L-cysteine cyclic (1→12)-disulfide triacetate (salt)] (H-CR[dS]FF[dW]KTFTSC-OH; disulfide 1-12) registered a GH with growth hormone [1] (setting [3]) of 37 ± 9 ng/mL. The molecule also displayed an INS in the assay on insulin (setting [4]) of 8 ± 1 μU/ml. The same molecule showed a GLUN in the assay with glucagon (setting [5]) of 26 ± 5 pg/mL. For the same molecule, the “GH (duration of activity)” value in the assay on growth hormone [2] (2 hours, control 290 ± 64, p<0.02) worked out at 91 ± 29 ng/mL; in the assay on growth hormone [2] (4 hours, control 133 ± 38, p<0.1 (not significant)), 57 ± 12 ng/mL.
